Here are results for 7 compounds from PubChem BioAssay (NCI).

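The compound was tested at five concentrations on cells cultured in 96-well plates, with a 48-hour exposure period. GI50 = concentration required for 50% inhibition of growth. TGI marks complete inhibition of growth.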

Holding throughout (test): growth of human tumour cells (NCI), 48 h
Assay [1] has as its system HCT-15 colon.
For assay [2], the system named is HT29 colon.
For assay [3], the system named is KM12 colon.
Assay [4] concerns LOX IMVI melanoma.
The test system of assay [5] is MCF7 breast.
Assay [6] has as its system MDA-MB-231 breast.
Assay [7] concerns OVCAR-4 ovarian.
The test system of assay [8] is OVCAR-5 ovarian.
Assay [9] relates to SF-539 CNS.
In assay [10] the test system is T-47D breast.

Turning to `Nc1cccc2c1CN(C1CCC(=O)NC1=O)C2=O` (stereo not drawn), the GI50 in assay [1], in assay [2], in [3], in [4], in [5] and in assay [6] was over 100 µM each time. The GI50 in assay [7], in [8], in [9] and in [10] was over 100 µM each time. The TGI in [1], in assay [2], in assay [3], in assay [4], in [5] and in assay [6] was over 100 µM each time. The TGI in assay [7], in assay [8], in [9] and in [10] was over 100 µM in each case.

On to `CCN1CCN(CC(=O)Nc2nc3ccc(NCc4ccc(C)cc4)cc3s2)CC1`, for which the GI50 in assay [1] is 1.04 µM; in [2] it was 1.27 µM; in [3], 5.67 µM; in assay [4], 0.94 µM; in [5] it was 1.81 µM; in [6], 2.72 µM. For the same compound, the GI50 in assay [7] was 6.24 µM; in [8], 5.63 µM; in assay [9], 1.5 µM; in [10], 1.6 µM. Moreover, the TGI in assay [1] amounted to 2.47 µM; in [2], 3.48 µM; in assay [3], 13.8 µM; in [4] it was 1.86 µM; in [5], 8.41 µM; in assay [6], 10 µM. The TGI in assay [7] came to 16.2 µM; in [8], 13.4 µM; in assay [9] it was 4.3 µM; in assay [10] it was 7.29 µM.

Turning to `CCCCCCCCn1ccc2cc(NC(=O)Cn3cc(CN4CCC(C)CC4)nn3)ccc21`, the GI50 in assay [1] is 1.61 µM; in [2] it was 1.73 µM; in assay [3], 1.81 µM; in assay [4], 1.64 µM; in assay [5] it was 1.65 µM; in [6] it was 1.71 µM. Moreover, the GI50 is 2.07 µM in assay [7], 1.63 µM in assay [8], 1.7 µM in assay [9] and 1.76 µM in assay [10]. The TGI was found to be 3.15 µM in [1]; 3.32 µM in assay [2]; 3.39 µM in assay [3]; 3.05 µM in assay [4]; 3.25 µM in assay [5]; 3.24 µM in assay [6]. In addition, the TGI in assay [7] is 4.85 µM; in [8] it was 3.42 µM; in [9], 3.08 µM; in assay [10] it was 4.08 µM.

On to `C/C(=C\CCc1ccsc1)CC/C=C(\C)CCCN1CCN(CCO)CC1`, for which the GI50 in assay [1] was 2.42 µM; in assay [2], 2.04 µM; in [3] it was 2.38 µM; in assay [4] it was 1.8 µM; in [5], 2.85 µM; in assay [6], 1.6 µM. Further, the GI50 in assay [7] is 2.7 µM; in assay [8] it was 4.04 µM; in assay [9], 3.41 µM; in assay [10], 2.03 µM. Moreover, the TGI in [1] is 6.31 µM; in [2], 5.01 µM; in [3] it was 5.66 µM; in [4] it was 3.37 µM; in [5], 8.56 µM; in [6] it was 4.18 µM. Further, the TGI came to 14.7 µM in [7], 17.6 µM in assay [8], 13.9 µM in assay [9] and 5.09 µM in assay [10].

On to `Cc1ccc(NC(C(=O)c2ccccc2)c2ccccc2)cc1` (stereo not drawn), for which the GI50 in assay [1] was 27.7 µM; in [3], 2.59 µM; in assay [4] it was 3.22 µM; in [5], 3.79 µM; in assay [6], 13 µM; in assay [7] it was 3.93 µM. In addition, the values for the GI50 in assay [8], in assay [9] and in assay [10] were 21.6 µM, 13 µM and 2.02 µM, respectively. The TGI is over 100 µM in [1]; 13.4 µM in assay [3]; 39.4 µM in assay [4]; 40.7 µM in assay [5]; over 100 µM in assay [6]; over 100 µM in assay [7]. Moreover, the values for the TGI in assay [8], in assay [9] and in assay [10] were over 100 µM, over 100 µM and 11.5 µM, respectively.

For `CC(=O)Nc1c(I)c(C(=O)O)c(I)c(N(C)C(C)=O)c1I`, the GI50 in assay [1], in [2], in [3], in assay [4], in [5] and in assay [6] was over 100 µM in each case. In addition, the GI50 in assay [7], in [8], in assay [9] and in assay [10] was over 100 µM each time. In addition, the TGI in assay [1], in assay [2], in assay [3], in assay [4], in assay [5] and in assay [6] was over 100 µM each time. Besides, the TGI in assay [7], in assay [8], in [9] and in assay [10] was over 100 µM throughout.

For the compound `Cc1cc(Br)c2nsnc2c1[N+](=O)[O-]`, the GI50 in assay [1] is 4.28 µM; in assay [2] it was 2.04 µM; in assay [3] it was 0.245 µM; in assay [4] it was 0.94 µM; in [5], 0.391 µM; in assay [6], 5.01 µM. The GI50 is 4.73 µM in assay [7], 4.55 µM in assay [8], 3.1 µM in assay [9] and 0.921 µM in assay [10]. The TGI in [1] worked out at 18.4 µM; in [2] it was 4.31 µM; in assay [3], 0.665 µM; in [4], 3.07 µM; in assay [5], 3.02 µM; in [6], 15.6 µM. The TGI in assay [7] stood at 17.3 µM; in assay [8], 15.9 µM; in assay [9], 11.2 µM; in [10], 5.96 µM.
